# Columns and labels:
# [1] = test system: T1, AM79 EPSPS; test: Pi release (Lanzetta reagent, […] nm); Michaelis-Menten fit; format: biochemical, uncultured soil bacterium; details: 1 mM S3P, no glyphosate, 50 mM HEPES-NaOH pH 7.0, 100 mM KCl, 2 mM DTT, 25 °C; read-out: K m (PEP; μM)
# T1 construct: gene aroA; aroA in pET-28a, stop codon removed so two His tags (N- and C-terminal), E. coli Rosetta (DE3), Ni-NTA purified; printed residues Ala107, Phe114, Ala355, His356, Glu357
# [2] = biological target: T2, G2 EPSPS (Pseudomonas fluorescens, UniProt A1Z0H6); test: Pi release (Lanzetta reagent, […] nm); Km(obs) of PEP versus glyphosate; format: biochemical; details: 1 mM S3P, varied PEP, 50 mM HEPES-NaOH pH 7.0, 100 mM KCl, 2 mM DTT, 25 °C; competitive with PEP; read-out: K i (glyphosate; μM)
# T2 construct: gene aroA
# [3] = biological target: T3, A1501 EPSPS (Stutzerimonas stutzeri, UniProt A4VLZ3); test: as above; format: biochemical; details: 1 mM S3P, varied PEP, 50 mM HEPES-NaOH pH 7.0, 100 mM KCl, 2 mM DTT, 25 °C; competitive with PEP; read-out: K i (glyphosate; μM)
# T3 construct: gene aroA
# [4] = biological target: T1, AM79 EPSPS; test: as above; format: biochemical, uncultured soil bacterium; details: 1 mM S3P, varied PEP, 50 mM HEPES-NaOH pH 7.0, 100 mM KCl, 2 mM DTT, 25 °C; competitive with PEP; read-out: K i (glyphosate; μM)
Structure (SMILES),Km [1] [µM],Ki [2] [µM],Ki [3] [µM],Ki [4] [µM]
C=C(OP(=O)(O)O)C(=O)O [PEP],14.59 ± 0.11,–,–,–
"O=C(O)CNCP(=O)(O)O [glyphosate, N-phosphonomethyl glycine]",–,44.7 ± 5.2,467 ± 30.2,154 ± 4.06

# — PMC3371024, “A Novel 5-Enolpyruvylshikimate-3-Phosphate Synthase Shows High Glyphosate Tolerance in Escherichia coli and Tobacco Plants” (PLoS ONE, 2012)
